# Data taken from patent publication US20130197023A1, “NEUROPROTECTION BY PHARMACOLOGICAL CHAPERONING OF NICOTINIC ACETYLCHOLINE RECEPTORS” (priority 2012, published 2013).
# Columns and labels:
# [1] = molecular target: T1, α4-eGFPβ2-wt nAChRs (Mus musculus, UniProt O70174+Q9ERK7); format: cell-based
# T1 construct: expressed in transfected cells; host or cells: mouse Neuro-2a cells
# Method: Neuro-2a cells were plated on 12 mm glass coverslips within 35 mm plastic bottom cell culture dishes. The following day, cells were transfected with 500 ng α4-eGFP and 500 ng β2-wt nAChR subunits. 24 to 48 hr later, glass coverslips were transferred to dishes on the microscope stage. Green fluorescence was visualized with an upright microscope (BX50WI, Olympus) and UV illumination with appropriate excitation filters. Agonist-induced currents were tested at a holding potential of −65 mV using a focal, relatively rapid drug application system designed to minimize desensitization (Xiao et al., 2009). We applied drugs from the lowest to highest concentration at 3 min intervals to minimize desensitization. Whole-cell patch-clamp recordings were with a MultiClamp 700B amplifier, a 1322 analog-to-digital converter, and pCLAMP 9.2 software (all from Axon Instruments, Molecular Devices). Data were sampled at 10 kHz and filtered at 2 kHz.
# The intrapipette solution contained (in mM): 135 potassium gluconate, 5 KCl, 5 EGTA, 0.5 CaCl2, 10 HEPES, 2 Mg-ATP, and 0.1 GTP; the pH was adjusted to 7.2 with Tris base and the osmolarity to 300 mOsm with sucrose. The extracellular solution contained (in mM): 140 NaCl, 5 KCl, 2 CaCl2, 1 MgCl2, 10 HEPES, and 10 glucose; pH was adjusted to 7.3 with Tris base. The Nernst potential for Cl^− in the intrapipette solution is −82.9 mV. The bath was continuously perfused with extracellular solution (ECS) at room temperature (23±1° C.). The patch electrodes had resistances of 5 to 8 MΩ. The junction potential between the patch pipette and the bath solutions was nulled just before forming a gΩ seal. Series resistance was monitored and compensated by 70-80% throughout recordings. The data were ignored if the series resistance (15-30 MΩ) changed by >20% during the recording session.
# [2] = molecular target: T1, α4-eGFPβ2-wt nAChRs; format: cell-based; remark: listed apart in the source
# From the text: Details of the quantification method have been previously described (Srinivasan et al., 2011). Briefly, PM fluorescence was extracted as follows: Raw TIRF images were converted to background-subtracted images and the ER fluorescence was thresholded and selected. ER fluorescence was then subtracted from the original image to generate images with PM fluorescence signals. These procedures yielded a dataset of several hundred thousand pixel intensities over the 15-50 cells in each experimental group. Fluorescence intensities are simply the sum of pixel values for either the PM or the ER or the ER+PM (using whole TIRF footprint images). Mean PM fluorescence intensity was derived by dividing the total fluorescence intensity for each experimental group by the number of imaged cells and normalized to intensity of untreated cells. Ratios of fluorescence intensities for the whole TIRF footprint (ER+PM) to ER were used to determine the post-Golgi fraction of receptors. For PM integrated density measurements, rather than plotting SEMs (which would be indistinguishably small on the plots), we have used “error bars” to depict 99% confidence intervals based on a two-tailed t-test. Measurements from drug treated cells were normalized to values of untreated cells imaged on the same day. DHβE TIRF experiments were performed on a different day from nicotine and cytisine experiments.
# [3] = octanol and water, PubChem Compound; cited from earlier work
# [4] = test system: ER exit sites (ERES); format: cell-based, mouse
# Method: Mouse Neuro-2a cells were cultured using standard tissue culture techniques and maintained in 45% DMEM, 45% OptiMEM and 10% FBS. Plasmid concentrations used for transfection were as follows: 500 ng of each nAChR subunit, 75 ng of pCS2-mcherry, 250 ng of Sec24D constructs, 100 ng of pDsRed2-ER, 250 ng of GaIT-eCFP and 500 ng of ATF6-eGFP. 90,000 cells were plated in poly-D-lysine coated 35 mm MatTek glass bottom imaging dishes. The following day, plasmid DNA was mixed with cationic lipids by adding appropriate DNA concentrations to 4 μl of Expressfect transfection reagent in 200 μl DMEM final volume and incubated for 20 min at room temperature to form cationic lipid-DNA complexes. DMEM+DNA-lipid complexes were added to Neuro-2a cells in 1 ml of DMEM+10% FBS and incubated at 37° C. for 4 h. Dishes were rinsed 2× with DMEM, then filled with 3 ml of DMEM+10% FBS and incubated at 37° C. for 48 h. Nicotine, cytisine or DHβE was added at appropriate concentrations during the change of medium following 4 h incubation with Expressfect-plasmid DNA complexes.
# Neuro-2a cells were co-transfected with 500 ng each of α4-mcherry and β2-wt nAChR subunits and 250 ng of the ERES marker, Sec24D-eGFP. Each cell was focused to a plane where the maximum ERES were visualized. Sequential images of eGFP and mcherry fluorescence were obtained and linearly unmixed. For quantification, ERES regions of interest (ROIs) were demarcated using intensity-based thresholding and counted for each cell using the particle analysis feature in ImageJ version 1.44 or later. The fluorescence intensity was obtained for each ERES body within the cells and average ERES intensity was plotted. Error bars for ERES measurements are ±standard error of mean (SEM) and p values are based on a 2-tailed t test.
# [5] = test system: Neuro-2a cells; format: cell-based, mouse
# Method: Neuro-2a cells were transfected with α4-eGFP (500 ng)+β2wt (500 ng)+GaIT-mcherry (250 ng) or pDSred2-ER (100 ng) and cells were incubated for 48 h with appropriate concentrations of nicotine, cytisine or DHβE.
# Two color fluorescence signals were separated with a dichroic and optical filters aligned in the emission path where green and red emission was separately aligned to the two halves of an EMCCD. Post-acquisition processing of images used Metamorph to demarcate TGN bodies and to extract number, size and intensity statistics.
# T1 sequence (O70174 31-629): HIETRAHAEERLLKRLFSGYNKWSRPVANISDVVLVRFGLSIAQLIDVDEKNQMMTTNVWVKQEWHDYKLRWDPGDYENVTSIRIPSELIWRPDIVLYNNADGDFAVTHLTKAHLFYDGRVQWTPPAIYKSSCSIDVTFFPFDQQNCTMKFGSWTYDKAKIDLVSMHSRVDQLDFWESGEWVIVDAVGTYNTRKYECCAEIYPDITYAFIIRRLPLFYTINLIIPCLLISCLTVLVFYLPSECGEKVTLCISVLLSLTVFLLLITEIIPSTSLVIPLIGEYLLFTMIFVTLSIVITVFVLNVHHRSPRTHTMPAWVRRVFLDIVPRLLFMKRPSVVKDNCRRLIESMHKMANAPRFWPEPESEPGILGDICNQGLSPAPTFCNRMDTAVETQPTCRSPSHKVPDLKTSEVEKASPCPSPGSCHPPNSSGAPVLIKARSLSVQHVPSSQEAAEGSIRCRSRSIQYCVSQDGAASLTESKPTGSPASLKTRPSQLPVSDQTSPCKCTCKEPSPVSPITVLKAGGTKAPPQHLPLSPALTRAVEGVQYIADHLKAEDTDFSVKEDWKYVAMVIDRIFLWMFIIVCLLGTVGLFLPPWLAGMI
# T1 sequence (Q9ERK7 26-501): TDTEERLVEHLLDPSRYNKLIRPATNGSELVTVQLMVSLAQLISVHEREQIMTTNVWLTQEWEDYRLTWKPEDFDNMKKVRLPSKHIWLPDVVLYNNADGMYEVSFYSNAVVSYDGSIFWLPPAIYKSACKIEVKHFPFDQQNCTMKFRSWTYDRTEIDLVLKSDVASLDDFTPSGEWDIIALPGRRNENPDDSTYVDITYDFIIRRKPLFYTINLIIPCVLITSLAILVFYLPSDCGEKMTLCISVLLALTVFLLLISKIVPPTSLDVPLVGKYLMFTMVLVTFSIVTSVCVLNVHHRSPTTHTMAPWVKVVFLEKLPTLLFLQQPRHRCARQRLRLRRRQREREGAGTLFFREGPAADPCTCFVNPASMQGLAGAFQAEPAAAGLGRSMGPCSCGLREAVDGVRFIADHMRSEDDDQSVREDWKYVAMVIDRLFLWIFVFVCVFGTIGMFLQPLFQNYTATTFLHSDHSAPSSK
structure (smiles),measurement,setting,value
"CN1CCCC1c1cccnc1 (centres unmarked) [Nicotine, nicotine]",evoked currents as % of maximum currents induced by 500 μM nicotine,[1],0.44±0.07%
same,fraction of the total receptor population activated,[1],0.4%
same,effect on the footprint/ER ratio (in words),[2],reduction
same,increase in PM-localized nAChRs,[2],2 fold
same,reduction of the footprint/ER ratio,[2],~2 fold
same,logP,[3],1.1
same,increase in ERES fluorescence / formation of ERES,[4],~2 fold
same,TGN intensity,[5],no effect
same,effect on the average intensity of TGN bodies (in words),[5],did not affect
same,effect on the number of TGN bodies (in words),[5],increased
same,increase in the average number of TGN bodies per cell,[5],~2 fold
